Laboratory results taken from US9446151B2, “In vivo imaging of enzymatic activity” (Caliper Life Sciences, Inc., priority 2011, dated 2016).

Columns and labels:
[1] = tested on: MDA-MB-231-luc2 tumor metastases; settings: Nu/Nu mouse, three weeks after intracardiac injection of 1 million MDA-MB-231-luc2 cells; IVIS imaging
Experimental: A Nu/Nu mouse was intracardiacally injected with 1 million of MDA-MB-231-luc2 cells. At three weeks, the mouse was imaged with an IVIS spectrum following intraperitoneal injection of luciferin (150 mg/kg). […] At 24 hours after luciferin injection when the bioluminescence signal returned to a base line level, this mouse was injected intravenously with luminol.
As inflammation is involved in a broad range of disease process, including tumor development, the utility of the NAC compositions and methods was also tested for tumor detection. In a systemic metastases model through intracardiac injection of MDA-MB-231-luc tumor, metastatic tumor development in lungs and knee joints was also evaluated using NAC compositions. Briefly, a Nu/Nu mouse was injected intracardiacally with 1 million MDA-MB-231-luc2 tumor cells. At three weeks, the mouse was imaged with an IVIS spectrum following intraperitoneal injection of luciferin (150 mg/kg). At 24 hours after luciferin injection when the bioluminescence signal returned to a base line level, this mouse was injected intravenously with luminol.

[2] = tested on: free radical production in the pulmonary tissues; settings: LPS 1 mg/kg intratracheal; intravenous probe; imaging 5 minutes after injection; vs non-LPS control mice given luminol/Quantum dot 800 mixture
Experimental: Animals were divided into three groups of animals.
An acute inflammatory response in pulmonary tissues was induced by intratracheal delivery of LPS to mice. In particular, LPS was dissolved in sterile PBS to a concentration of 10 mg/ml. LPS (in 50 μl total volume) was delivered to mice intratracheally with a 22-gauge intubator. The final dose of LPS was 1 mg/kg. […] Imaging was performed at 5 minutes after injection.

| Structure (SMILES) | detection of tumor metastases (loci) [1] | increase of NAC / lung signal from the pulmonary tissues as compared to control mice [2] |
| --- | --- | --- |
| O=C(O)[C@H]1CSC(c2nc3ccc(O)cc3s2)=N1 [luciferin] | detected in the lungs, knee joints and cranial region | – |
| Nc1cccc2c(=O)[nH][nH]c(=O)c12 [luminol] | Tumor metastasis at the knee joint was detected | two |
